Results: paper PMC13607727 (International Journal of Molecular Sciences, 2026)
Structures can show the parent of a compound that is named as a salt.

Experiments:
Type in all cases: cell-based, SARS-CoV-2; human
[1] = biological target: Delta (B.1.617.2) S-RBD/hACE2 (Severe acute respiratory syndrome coronavirus 2, UniProt P0DTC2, L452R/T478K)
[2] = biological target: 2019-nCoV S-RBD/hACE2 (Severe acute respiratory syndrome coronavirus 2, UniProt P0DTC2)
[3] = biological target: Omicron (BA.5) S-RBD/hACE2 (Severe acute respiratory syndrome coronavirus 2, UniProt P0DTC2, D405N/E484A/F486V/G339D/K417N/L452R/N440K/N501Y/Q498R/R408S/S371F/S373P/S375F/S477N/T376A/T478K/Y505H)

Structure (SMILES): CC(OC(=O)OC1CCCCC1)OC(=O)C1=C(CSc2nnnn2CC[NH+](C)C)CSC2C(NC(=O)Cc3csc(N)n3)C(=O)N12 (stereo not drawn) [CTM-HCl, cefotiam hexetil hydrochloride]
- Effect on S-RBD/hACE2 colocalisation [1]: showed similar effects against all tested strains
- Effect on S-RBD/hACE2 colocalisation [2]: showed similar effects against all tested strains
- Effect on S-RBD/hACE2 colocalisation [3]: showed similar effects against all tested strains

Structure (SMILES): CCCCCCCCC=CCCCCCCCC(=O)OCC(C[N+](C)(C)C)OC(=O)CCCCCCCC=CCCCCCCCC (stereo not drawn) [DOTAP, DOTAP chloride]
- Effect on S-RBD/hACE2 colocalisation [1]: reduced colocalisation to all three S-RBD variants in a concentration-dependent manner
- Effect on S-RBD/hACE2 colocalisation [2]: reduced colocalisation to all three S-RBD variants in a concentration-dependent manner
- Effect on S-RBD/hACE2 colocalisation [3]: reduced colocalisation to all three S-RBD variants in a concentration-dependent manner
